# Source: ChEMBL document CHEMBL1142024, “Glucokinase-activating ureas” (Bioorg Med Chem Lett, 2005)
# Active and inactive are the calls of the source. No cut-off for these calls is given here.
# Columns and labels:
# [1] = target: T1, Hexokinase-4 (Rattus norvegicus, UniProt P17712); assay: Effective concentration for glucokinase activation with 5 mM glucose; type: functional
# T1 sequence (P17712 whole entry): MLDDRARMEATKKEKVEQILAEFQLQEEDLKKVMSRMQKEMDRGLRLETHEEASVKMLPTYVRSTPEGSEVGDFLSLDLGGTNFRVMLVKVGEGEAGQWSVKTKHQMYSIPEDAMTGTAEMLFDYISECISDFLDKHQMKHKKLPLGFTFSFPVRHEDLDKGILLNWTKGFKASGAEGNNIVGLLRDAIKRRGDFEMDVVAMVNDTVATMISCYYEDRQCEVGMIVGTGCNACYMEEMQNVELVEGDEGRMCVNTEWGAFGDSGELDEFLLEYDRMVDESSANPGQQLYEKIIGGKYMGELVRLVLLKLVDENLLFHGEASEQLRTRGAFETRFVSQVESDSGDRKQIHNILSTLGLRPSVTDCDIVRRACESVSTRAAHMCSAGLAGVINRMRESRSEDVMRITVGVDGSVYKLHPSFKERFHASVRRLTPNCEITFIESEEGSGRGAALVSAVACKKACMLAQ
# [2] = target: T1, Hexokinase-4; assay: Effective concentration for glucokinase activity; NA - No activation at 30 uM; type: functional
# [3] = target: T2, Hexokinase-4 (Rattus norvegicus) (UniProt P17712); assay: Maximal activation of glucokinase; NA - No activation at 30 uM
# T2 sequence (whole entry): T1 sequence (P17712 whole entry)
# [4] = target: T1, Hexokinase-4; assay: Effective concentration for glucokinase activation; NA - No activation at 30 uM; type: functional
# [5] = target: T2, Hexokinase-4 (Rattus norvegicus); assay: Maximal activation of glucokinase at 15 mM glucose
# [6] = target: T1, Hexokinase-4; assay: Effective concentration for glucokinase activation with 15 mM glucose; type: functional
EC50 [1] [µM],SMILES,also measured
7.7,N#Cc1ccc(N(CC2CCCC2)C(=O)Nc2ncc(Cl)s2)cn1,
1.4,COc1cccc(N(CC2CCCC2)C(=O)Nc2ncc(Cl)s2)c1,
21.6,CS(=O)(=O)c1ccc(N(CC2CCCO2)C(=O)Nc2ncc(Cl)s2)cc1 (stereo not given),
6.8,CS(=O)(=O)c1ccc(N(Cc2ccsc2)C(=O)Nc2ncc(Cl)s2)cc1,
1.3,O=C(Nc1ncc(Cl)s1)N(CC1CCCC1)c1ccc(C(F)(F)F)cc1,
6.6,CS(=O)(=O)c1ccc(N(Cc2cccs2)C(=O)Nc2ncc(Cl)s2)cc1,
16,CS(=O)(=O)c1ccc(N(CC2CCCC2)C(=O)Nc2nccs2)cc1,Activity [5]: 2.8; EC50 [6]: 9.7 µM
2.6,O=C(Nc1ncc(Cl)s1)N(CC1CCCC1)c1ccc(F)c(F)c1,
32.9,CS(=O)(=O)c1ccc(N(CC2CCCC2)C(=O)Nc2nc3ccc(S(C)(=O)=O)cc3s2)cc1,
21.9,CS(=O)(=O)c1ccc(N(CC2CCOC2)C(=O)Nc2ncc(Cl)s2)cc1 (stereo not given),
1.8,NS(=O)(=O)c1ccc(N(CC2CCCC2)C(=O)Nc2ncc(Cl)s2)cc1,
34.2,CS(=O)(=O)c1ccc(N(CC2CCCC2)C(=O)Nc2nnc(C(F)(F)F)s2)cc1,
2.4,N#Cc1ccc(N(CC2CCCC2)C(=O)Nc2ncc(Cl)s2)cc1,
11.5,CS(=O)(=O)c1ccc(N(Cc2ccco2)C(=O)Nc2ncc(Cl)s2)cc1,
4.9,CS(=O)(=O)c1ccc(N(CC2CCOCC2)C(=O)Nc2ncc(Cl)s2)cc1,
1.5,CS(=O)(=O)c1ccc(N(CC2CCCC2)C(=O)Nc2ncc(Cl)s2)cc1,
2.7,COc1ccc(N(CC2CCCC2)C(=O)Nc2ncc(Cl)s2)cn1,

# Second part, the compound before the results:
SMILES,EC50 [1] [µM],also measured
CS(=O)(=O)c1ccc(N(Cc2nccs2)C(=O)Nc2ncc(Br)s2)cc1,24.1,
NC(=O)c1cccc(N(CC2CCCC2)C(=O)Nc2ncc(Cl)s2)c1,1,
O=C(Nc1ncc(Cl)s1)N(CC1CCCC1)c1ccc(N2CCOCC2)cc1,,EC50 [2]: Not Active; Activity [3]: inactive
COc1ccc(N(CC2CCCC2)C(=O)Nc2nccs2)cn1,19.2,
O=C(Nc1ccccn1)N(CC1CCCC1)c1ccc(F)c(F)c1,,Activity [3]: inactive; EC50 [4]: Not Active
COc1ccc(N(CC2CCCC2)C(=O)Nc2nncs2)cn1,,Activity [3]: inactive; EC50 [4]: Not Active
CS(=O)(=O)c1ccc(C(CC2CCCC2)C(=O)Nc2nccs2)cc1 (stereo not given),2.2,Activity [5]: 1.6; EC50 [6]: 1 µM
COc1ccc(N(CC2CCCC2)C(=O)NC2=NC(=O)CS2)cn1,29.1,
COc1ccc(N(CC2CCCC2)C(=O)Nc2ncc(Br)s2)cn1,2,
O=C(Nc1ncc(Cl)s1)N(CC1CCCC1)c1ccc(Br)c(F)c1,0.7,
CS(=O)(=O)c1ccc(N(Cc2ccsc2)C(=O)Nc2ncc(Br)s2)cc1,6.5,
O=C(Nc1nccs1)N(CC1CCCC1)c1ccc(F)c(F)c1,16.3,
CC(=O)Nc1cccc(N(CC2CCCC2)C(=O)Nc2ncc(Cl)s2)c1,0.3,
O=C(Nc1ncc(Cl)s1)N(CC1CCCC1)c1ccc(Oc2ccccc2)cc1,,EC50 [2]: Not Active; Activity [3]: inactive
Cc1ccc(N(CC2CCCC2)C(=O)Nc2ncc(Cl)s2)cc1Cl,0.4,
